For 19 molecules, MIC and cytotoxicity results are on record in ChEMBL document CHEMBL3232798, “Synthesis and antimycobacterial activities of some new thiazolylhydrazone derivatives” (Bioorg Med Chem Lett, 2014).

In brackets after ≈: the same amount, converted by molar mass.

Data set [1] deals with Mycobacterium tuberculosis. As to the kind of experiment: Antimycobacterial activity against Mycobacterium tuberculosis H37Rv by microplate alamar blue assay. The format is functional.
A short description of data set [2]: Cytotoxicity against human THP1 cells at 50 ug/ml by MTT assay. The format is cell-based. The following applies: THP-1 cells, read-out: INH. A general note: Tetrazolium dyes change colour on reduction, which living cells bring about.

For `C(=N\Nc1nc(-c2ccccc2)cs1)/c1ccc(-n2ccnc2)cc1`, the MIC in data set [1] is 72.5 µM (≈ 25 µg/mL). In data set [2], the cytotoxicity at 50 ug/ml was determined as 21.8%.

Molecule `Fc1ccc(-c2csc(N/N=C/c3ccc(-n4ccnc4)cc3)n2)cc1` came in with a minimum inhibitory concentration (MIC) in data set [1] of 4.3 µM (≈ 1.56 µg/mL). Also, the cytotoxicity at 50 ug/ml in data set [2] was 18.7%.

As for `Clc1ccc(-c2csc(N/N=C/c3ccc(-n4ccnc4)cc3)n2)cc1`, inhibition of growth in data set [1] (MIC) required 8.22 µM (≈ 3.12 µg/mL). In data set [2], the cytotoxicity at 50 ug/ml was found to be 32.1%.

In data set [1], `Brc1ccc(-c2csc(N/N=C/c3ccc(-n4ccnc4)cc3)n2)cc1` yielded an MIC of 59.1 µM (≈ 25.1 µg/mL). Besides, in data set [2], the cytotoxicity at 50 ug/ml worked out at 36.8%.

As for `Clc1ccc(-c2csc(N/N=C/c3ccc(-n4ccnc4)cc3)n2)c(Cl)c1`, the minimum inhibitory concentration (MIC) in data set [1] stood at 15.1 µM (≈ 6.26 µg/mL). In addition, the cytotoxicity at 50 ug/ml in data set [2] was 28.8%.

Molecule `Cc1ccc(-c2csc(N/N=C/c3ccc(-n4ccnc4)cc3)n2)cc1` gave an MIC in data set [1] of 33 µM (≈ 11.9 µg/mL). Also, the cytotoxicity at 50 ug/ml in data set [2] came to 36%.

On to `COc1ccc(-c2csc(N/N=C/c3ccc(-n4ccnc4)cc3)n2)cc1`, for which, in data set [1], 4.16 µM (≈ 1.56 µg/mL) was the least that counted as inhibitory (MIC). Besides, in data set [2], the cytotoxicity at 50 ug/ml turned out to be 26.8%.

Molecule `O=[N+]([O-])c1ccc(-c2csc(N/N=C/c3ccc(-n4ccnc4)cc3)n2)cc1` came in with a minimum inhibitory concentration (MIC) in data set [1] of 1.03 µM (≈ 0.402 µg/mL). In data set [2], the cytotoxicity at 50 ug/ml was found to be 16.4%.

In data set [1], `C(=N\Nc1nc(-c2ccccc2)cs1)/c1ccc(-n2cncn2)cc1` registered an MIC of 72.2 µM (≈ 25 µg/mL). In data set [2], the cytotoxicity at 50 ug/ml was 28.4%.

For `Fc1ccc(-c2csc(N/N=C/c3ccc(-n4cncn4)cc3)n2)cc1`, in data set [1], the MIC is 4.29 µM (≈ 1.56 µg/mL). Moreover, the cytotoxicity at 50 ug/ml in data set [2] turned out to be 35.9%.

In data set [1], `Clc1ccc(-c2csc(N/N=C/c3ccc(-n4cncn4)cc3)n2)cc1` came in with a minimal inhibitory concentration (MIC) of 8.2 µM (≈ 3.12 µg/mL). Also, the cytotoxicity at 50 ug/ml in data set [2] turned out to be 28.4%.

`Brc1ccc(-c2csc(N/N=C/c3ccc(-n4cncn4)cc3)n2)cc1` came in with a minimum inhibitory concentration (MIC) in data set [1] of 29.5 µM (≈ 12.5 µg/mL). Also, the cytotoxicity at 50 ug/ml in data set [2] amounted to 32.6%.

`Clc1ccc(-c2csc(N/N=C/c3ccc(-n4cncn4)cc3)n2)c(Cl)c1` had an MIC in data set [1] of 3.76 µM (≈ 1.56 µg/mL). In data set [2], the cytotoxicity at 50 ug/ml amounted to 8.9%.

Take `Cc1ccc(-c2csc(N/N=C/c3ccc(-n4cncn4)cc3)n2)cc1`: the lowest concentration to inhibit growth in data set [1] (MIC) was 4.33 µM (≈ 1.56 µg/mL). For the same molecule, the cytotoxicity at 50 ug/ml in data set [2] was 13.6%.

In turn, `COc1ccc(-c2csc(N/N=C/c3ccc(-n4cncn4)cc3)n2)cc1` came in with an MIC in data set [1] of 16.6 µM (≈ 6.26 µg/mL). In addition, in data set [2], the cytotoxicity at 50 ug/ml was 23%.

As to `O=[N+]([O-])c1ccc(-c2csc(N/N=C/c3ccc(-n4cncn4)cc3)n2)cc1`, the minimal inhibitory concentration (MIC) in data set [1] came to 3.99 µM (≈ 1.56 µg/mL). The cytotoxicity at 50 ug/ml in data set [2] was 12.9%.

`CC[C@@H](CO)NCCN[C@@H](CC)CO` [ETHAMBUTOL] returned a minimum inhibitory concentration (MIC) in data set [1] of 7.65 µM (≈ 1.56 µg/mL).

As to `NNC(=O)c1ccncc1` [ISONIAZID], inhibition of growth in data set [1] (MIC) required 0.36 µM (≈ 0.0494 µg/mL).

In the case of `CO[C@H]1/C=C/O[C@@]2(C)Oc3c(C)c(O)c4c(O)c(c(/C=N/N5CCN(C)CC5)c(O)c4c3C2=O)NC(=O)/C(C)=C\C=C\[C@H](C)[C@H](O)[C@@H](C)[C@@H](O)[C@@H](C)[C@H](OC(C)=O)[C@@H]1C` [RIFAMPIN], 0.12 µM (≈ 0.0988 µg/mL) was the least that counted as inhibitory in data set [1] (MIC).

The MIC is the lowest concentration that inhibits growth of the organism.
